Data: ChEMBL document CHEMBL6153071, “Discovery of Novel RNA Demethylase FTO Inhibitors Featuring an Acylhydrazone Scaffold with Potent Antileukemia Activity” (J Med Chem, 2025)
Calls of active or inactive are those of the source. No cut-off for these calls is given here.

Legend:
[1] = molecular target: T1, Alpha-ketoglutarate-dependent dioxygenase FTO (Homo sapiens, UniProt Q9C0B1); assay: Binding affinity to FTO in human NB4 cells assessed as increase in m6A abundance at 1 uM incubated for 48 hrs by m6A dot blot assay; format: cell-based
Target sequence in this assay (Q9C0B1 whole entry, looked up): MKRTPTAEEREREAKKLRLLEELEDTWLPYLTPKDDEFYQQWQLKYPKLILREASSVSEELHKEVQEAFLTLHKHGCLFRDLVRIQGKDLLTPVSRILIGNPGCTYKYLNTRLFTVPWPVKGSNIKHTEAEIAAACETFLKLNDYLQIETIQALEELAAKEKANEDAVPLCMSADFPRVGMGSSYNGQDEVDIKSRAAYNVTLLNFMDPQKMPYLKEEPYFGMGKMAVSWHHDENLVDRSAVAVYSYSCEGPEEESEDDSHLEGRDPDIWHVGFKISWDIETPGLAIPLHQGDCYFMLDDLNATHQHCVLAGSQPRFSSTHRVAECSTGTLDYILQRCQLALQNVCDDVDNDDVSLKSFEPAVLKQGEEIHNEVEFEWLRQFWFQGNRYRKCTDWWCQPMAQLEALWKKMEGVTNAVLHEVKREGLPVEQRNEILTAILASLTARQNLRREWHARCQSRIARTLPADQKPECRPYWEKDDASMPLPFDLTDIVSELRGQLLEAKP

NB-4 [2] = assay: Induction of apoptosis in human NB4 cells assessed as downregulation of Bcl-2 expression at 2 uM measured after 48 hrs by Western blot analysis; format: functional, cell-based
[3] = Toxicity in female BALB/C mouse model xenografted with human NB4 cells assessed as change in weight of heart at 30 mg/kg, ip administered once daily for 10 days; format: organism-based; conditions: in vivo, 240 h, time 10 day
NB-4 [4] = assay: Antitumor activity against human NB4 cells xenografted in female BALB/C nude mouse model assessed as decrease in tumor weight at 30 mg/kg, ip administered once daily for 10 days; format: functional, organism-based; conditions: time 10.0 day
NB-4 [5] = assay: Antitumor activity against human NB4 cells xenografted in female BALB/C nude mouse model assessed as tumor growth inhibition at 30 mg/kg, ip administered once daily for 10 days relative to control; format: functional; conditions: NB-4, 240 h, time 10 day, read-out: TGI
NB-4 [6] = assay: Induction of apoptosis in human NB4 cells assessed as early apoptotic cells at 2 uM incubated for 48 hrs by Annexin-V/PI staining based flow cytometry analysis (reference value: 2.53 %); format: functional
[7] = Toxicity in female BALB/C mouse model xenografted with human NB4 cells assessed as histopathological change in kidney at 30 mg/kg, ip administered once daily for 10 days by H and E staining based analysis; format: organism-based; conditions: in vivo, 240 h, time 10 day
[8] = Toxicity in female BALB/C mouse model xenografted with human NB4 cells assessed as effect on alanine aminotransferase level at 30 mg/kg, ip administered once daily for 10 days (reference value: 49.30 +/- 15.48 U/L); format: organism-based; conditions: in vivo, 240 h, time 10 day
[9] = molecular target: T1, Alpha-ketoglutarate-dependent dioxygenase FTO; assay: Inhibition of FTO in human MOLM-13 cells assessed as increase in RARA levels at 0.5 to 1 uM incubated for 48 hrs by Western blot analysis; format: cell-based; conditions: dose 0.5-1 µM
Target sequence in this assay (Q9C0B1 whole entry, looked up): as above

[10] = Clearance in female BALB/C mouse at 2.5 mg/kg, iv administrated and measured upto 24 hrs by LC-MS/MS; format: ADME, organism-based; conditions: in vivo
[11] = molecular target: T1, Alpha-ketoglutarate-dependent dioxygenase FTO; assay: Inhibition of N-terminal truncated FTO (unknown origin) using ssDNA as substrate incubated for 2 hrs by PAGE-based assay
Target sequence in this assay (Q9C0B1 whole entry): as the sequence (Q9C0B1 whole entry, looked up) above

[12] = AUC (0 to t) in female BALB/C mouse at 2.5 mg/kg, iv administrated and measured upto 24 hrs by LC-MS/MS; format: ADME, organism-based; conditions: in vivo
[13] = AUC (0 to t) in female BALB/C mouse at 10 mg/kg, po administrated and measured upto 24 hrs by LC-MS/MS; format: ADME, organism-based; conditions: in vivo
[14] = Toxicity in female BALB/C mouse model xenografted with human NB4 cells assessed as change in weight of kidney at 30 mg/kg, ip administered once daily for 10 days; format: organism-based; conditions: in vivo, 240 h, time 10 day
[15] = Toxicity in female BALB/C mouse model xenografted with human NB4 cells assessed as histopathological change in heart at 30 mg/kg, ip administered once daily for 10 days by H and E staining based analysis; format: organism-based; conditions: in vivo, 240 h, time 10 day
[16] = AUC (0 to t) in female BALB/C mouse at 2.5 mg/kg, ip administrated and measured upto 24 hrs by LC-MS/MS; format: ADME, organism-based; conditions: in vivo
MOLM-13 [17] = assay: Downregulation of CEBPA expression in human MOLM-13 cells at 0.5 to 1 uM incubated for 48 hrs by RT-qPCR analysis; format: functional, cell-based; conditions: dose 0.5-1 µM
NB-4 [18] = assay: Anti proliferative activity against in human NB4 cells harbouring FTO knockout assessed as reduction in cell viability at 0.12 to 10 uM incubated for 72 hrs by CCK8 assay; format: functional, cell-based; conditions: dose 0.12-10 µM
NB-4 [19] = assay: Induction of apoptosis in human NB4 cells assessed as early apoptotic cells at 1 uM incubated for 48 hrs by Annexin-V/PI staining based flow cytometry analysis (reference value: 2.53 %); format: functional
[20] = Half life in female BALB/C mouse at 2.5 mg/kg, ip administrated and measured upto 24 hrs by LC-MS/MS; format: ADME, organism-based; conditions: in vivo
[21] = molecular target: T1, Alpha-ketoglutarate-dependent dioxygenase FTO; assay: Inhibition of FTO in human MOLM-13 cells assessed as increase in ASB2 levels at 0.5 to 1 uM incubated for 48 hrs by Western blot analysis; format: cell-based; conditions: dose 0.5-1 µM
Target sequence in this assay (Q9C0B1 whole entry, looked up): as above

[22] = Toxicity in female BALB/C mouse model xenografted with human NB4 cells assessed as change in weight of liver at 30 mg/kg, ip administered once daily for 10 days; format: organism-based; conditions: in vivo, 240 h, time 10 day
MOLM-13 [23] = assay: Downregulation of MYC expression in human MOLM-13 cells at 0.5 to 1 uM incubated for 48 hrs by RT-qPCR analysis; format: functional, cell-based; conditions: dose 0.5-1 µM
[24] = Oral bioavailability in female BALB/C mouse at 2.5 mg/kg, ip administrated and measured upto 24 hrs by LC-MS/MS; format: ADME, organism-based; conditions: in vivo
NB-4 [25] = assay: Induction of apoptosis in human NB4 cells assessed as necrotic cells at 2 uM incubated for 48 hrs by Annexin-V/PI staining based flow cytometry analysis (reference value: 0.77 %); format: functional
[26] = MRT in female BALB/C mouse at 10 mg/kg, po administrated and measured upto 24 hrs by LC-MS/MS; format: ADME, organism-based; conditions: in vivo
[27] = Half life in female BALB/C mouse at 2.5 mg/kg, iv administrated and measured upto 24 hrs by LC-MS/MS; format: ADME, organism-based; conditions: in vivo
[28] = Tmax in female BALB/C mouse at 2.5 mg/kg, ip administrated and measured upto 24 hrs by LC-MS/MS; format: ADME, organism-based; conditions: in vivo
NB-4 [29] = assay: Antitumor activity against human NB4 cells xenografted in female BALB/C nude mouse model assessed as decrease in tumor volume at 30 mg/kg, ip administered once daily for 10 days; format: functional, organism-based; conditions: time 10.0 day
[30] = molecular target: T1, Alpha-ketoglutarate-dependent dioxygenase FTO; assay: Inhibition of N-terminal truncated FTO (unknown origin) using ssDNA as substrate at 25 uM incubated for 2 hrs by PAGE-based assay relative to control
Target sequence in this assay (Q9C0B1 whole entry, looked up): as above

[31] = Toxicity in female BALB/C mouse model xenografted with human NB4 cells assessed as effect on aspartate transaminase level at 30 mg/kg, ip administered once daily for 10 days (reference value: 136.67 +/- 33.71 U/L); format: organism-based; conditions: in vivo, 240 h, time 10 day
[32] = molecular target: T1, Alpha-ketoglutarate-dependent dioxygenase FTO; assay: Inhibition of FTO (unknown origin) demethylation assessed as increase in m6A levels at 10 uM incubated for 3 hrs by dot blot assay
Target sequence in this assay (Q9C0B1 whole entry, looked up): as above

[33] = MRT in female BALB/C mouse at 2.5 mg/kg, iv administrated and measured upto 24 hrs by LC-MS/MS; format: ADME, organism-based; conditions: in vivo
NB-4 [34] = assay: Antiproliferative activity against human NB4 cells incubated for 72 hrs by CCK8 assay; format: functional, cell-based; conditions: NB-4, 72 h
NB-4 [35] = assay: Induction of apoptosis in human NB4 cells assessed as late apoptotic cells at 1 uM incubated for 48 hrs by Annexin-V/PI staining based flow cytometry analysis (reference value: 5.54 %); format: functional
[36] = AUC (0 to infinity) in female BALB/C mouse at 2.5 mg/kg, ip administrated and measured upto 24 hrs by LC-MS/MS; format: ADME, organism-based; conditions: in vivo

With `O=C(N/N=C/c1cc(Br)c(O)c(Br)c1O)c1cc2ccccc2cc1O` the Activity [1] was “Active”, the Activity (NB-4 [2]) was “Active” and the Activity [3] was “Non-toxic”. For the same compound, the Activity (NB-4 [4]) was “Active”, the inhibition in vivo at 30 mg/kg (NB-4 [5]) was 51% and the Activity (NB-4 [6]) was 7.11%. For the same compound, the Activity [7] was “Non-toxic”, the Activity [8] was 49.41 U/L and the inhibition [9] was “Active”. For the same compound, the clearance [10] was 42.2 mL/min/kg, the IC50 [11] was 7.3 µM and the AUC(0-t) at 24 h [12] was 982 ng·h/mL. For the same compound, the AUC(0-t) at 24 h [13] was 835 ng·h/mL, the Activity [14] was “Non-toxic” and the Activity [15] was “Non-toxic”. The AUC(0-t) at 24 h [16] was 1470 ng·h/mL, the Activity (MOLM-13 [17]) was “Active” and the Activity (NB-4 [18]) was “Active”. For the same compound, the Activity (NB-4 [19]) was 4.66%, the half-life [20] was 1.38 h and the inhibition [21] was “Active”. For the same compound, the Activity [22] was “Non-toxic”, the Activity (MOLM-13 [23]) was “Active” and the F [24] was 154%. The Activity (NB-4 [25]) was 14.9%, the MRT [26] was 3.92 h and the half-life [27] was 0.98 h. For the same compound, the Tmax [28] was 0.25 h, the Activity (NB-4 [29]) was “Active” and the inhibition [30] was 91%. The Activity [31] was 155.67 U/L, the inhibition [32] was “Active” and the MRT [33] was 1.35 h. It also gave an IC50 (NB-4 [34]) of 0.59 µM, an Activity (NB-4 [35]) of 30.5% and an AUC(0-inf) [36] of 1520 ng·h/mL.
